Paper PMC6225185 (2018)

How the values were obtained:
[1] = tested on: [d-(TTGGGGT)]4 (DNA, G4) TTGGGGT; assay: 1H NMR titration (T7H6 and T7CH3 shifts); conditions: 100 mM KCl, 10 mM K2HPO4; 1 mM EDTA, pH 7.0, 25 °C, 90% H2O/10% D2O; site 1 of 2 (G6-T7); apparent
[2] = tested on: [d-(TTGGGGT)]4 immobilized (SPR) (DNA, G4) TTGGGGT; assay: SPR steady state; conditions: 100 mM KCl; 10 mM HEPES, 3 mM EDTA, 0.005% P20, pH 7.4, 25 °C; dominant mode
[3] = tested on: [d-(TTGGGGT)]4 (DNA, G4) TTGGGGT; assay: DSC; conditions: 100 mM KCl, 10 mM K2HPO4; 1 mM EDTA, pH 7.0; 50 µM quadruplex, D/N = 4.0 (200 µM daunomycin); third transition

- Kb [1]: ~ 1.8–2.3 × 10^4 M^−1
- Kb [2]: ~ 4.1 × 10^3 M^−1
- ΔTm3 [3]: 14.4 ± 1.1 °C
SMILES: COc1cccc2c1C(=O)c1c(O)c3c(c(O)c1C2=O)C[C@@](O)(C(C)=O)C[C@@H]3O[C@H]1C[C@H](N)[C@H](O)[C@H](C)O1
